Results from ChEMBL document CHEMBL4673222, “Discovery of a Bioactive Inhibitor with a New Scaffold for Cystathionine γ-Lyase” (J Med Chem, 2019).
Values belong to the compound of their own block, whether it stands above or below them. The source made the active and inactive calls. The calls are words filed in the database; no cut-off is given here.

Assays:
[1] = biological target: T1, Cystathionine gamma-lyase (Homo sapiens, UniProt P32929); assay: Inhibition of human CSE using L-Cys as the substrate by tandem well based HTS assay
T1 sequence (P32929 whole entry): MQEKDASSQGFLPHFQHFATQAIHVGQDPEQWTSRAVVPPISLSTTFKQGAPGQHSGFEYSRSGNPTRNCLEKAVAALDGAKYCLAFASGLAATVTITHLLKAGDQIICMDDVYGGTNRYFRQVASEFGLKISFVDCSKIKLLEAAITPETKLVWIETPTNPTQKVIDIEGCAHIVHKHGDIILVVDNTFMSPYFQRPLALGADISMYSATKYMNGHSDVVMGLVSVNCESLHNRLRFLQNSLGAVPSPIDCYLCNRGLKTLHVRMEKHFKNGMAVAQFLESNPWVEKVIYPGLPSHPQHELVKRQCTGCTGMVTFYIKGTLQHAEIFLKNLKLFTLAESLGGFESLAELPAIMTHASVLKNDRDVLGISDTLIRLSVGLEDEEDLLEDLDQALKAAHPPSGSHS

[2] = biological target: T1, Cystathionine gamma-lyase; assay: Competitive inhibition of human CSE using varying levels of L-Cys as substrate and fixed PLP levels
Homo sapiens [3] = organism: Homo sapiens; assay: Selectivity index, ratio of IC50 for human CBS to IC50 for human DDC
[4] = Binding affinity to H2S assessed as absorbing of released H2S at 200 uM in presence of NaHS as H2S donor
[5] = biological target: T1, Cystathionine gamma-lyase; assay: Inhibition of human CSE using H-Cys as the substrate by tandem well based HTS assay
[6] = biological target: T1, Cystathionine gamma-lyase; assay: Inhibition of human CSE using H-Cys as the substrate by LC/MS/MS-based assay
[7] = biological target: T1, Cystathionine gamma-lyase; assay: Non-covalent reversible inhibition of human CSE
[8] = biological target: T1, Cystathionine gamma-lyase; assay: Binding affinity to human CSE by ITC analysis
[9] = Binding affinity to H2S assessed as absorbing of released H2S up to 100 uM in presence of NaHS as H2S donor; conditions: dose microM <=100
[10] = biological target: T1, Cystathionine gamma-lyase; assay: Inhibition of human CSE using L-Cys as the substrate in presence of 0.025% Triton X-100 by tandem well based HTS assay
Homo sapiens [11] = organism: Homo sapiens; assay: Selectivity index, ratio of IC50 for human CBS to IC50 for human CSE
[12] = biological target: T1, Cystathionine gamma-lyase; assay: Inhibition of human CSE using L-Cys as the substrate in presence of 0.01% Triton X-100 by tandem well based HTS assay

IC50 [1]: < 50 µM
SMILES: O=C1C(Cl)=C(NCCCCCCNC2=C(Cl)C(=O)c3ccccc3C2=O)C(=O)c2ccccc21

IC50 [1]: < 50 µM
SMILES: CCNC1=CC(=O)c2ncccc2C1=O

IC50 [1]: < 50 µM
SMILES: CN1CCN(C2=C(Cl)C(=O)c3ccccc3C2=O)CC1

IC50 [1]: < 50 µM
SMILES: O=C1C(Cl)=C(NCCN2CCNCC2)C(=O)c2ccccc21

Ki [2]: 4.9 µM
Ratio IC50 (Homo sapiens [3]): 32
Activity [4]: 20%
IC50 [5]: 7.4 µM
IC50 [6]: 13.5 µM
IC50 [7]: 6.2 µM
Kd [8]: 3.8 µM
Activity [9]: inactive
IC50 [1]: 6.2 µM
inhibition [10]: Active
Ratio IC50 (Homo sapiens [11]): 161
inhibition [12]: Active
SMILES: COc1cccc2c1C(=O)C1=C(C[C@H](CC(=O)O)O[C@H]1C)C2=O

IC50 [1]: > 200 µM
SMILES: COC(=O)C1=CC(=C(c2ccc(O)c(C(=O)OC)c2)c2ccc(O)c(C(=O)OC)c2)C=CC1=O

IC50 [1]: < 50 µM
SMILES: O=C1c2ccccc2C(=O)c2sc(Nc3ccc(Cl)cc3)nc21

IC50 [1]: < 50 µM
SMILES: O=C1C=C/C(=N/C2C(=O)c3ccccc3C(=O)C2Cl)C=C1Cl (stereo not drawn)

IC50 [1]: < 50 µM
SMILES: Cc1nc2c(N)nc(N)nc2nc1O

IC50 [1]: 143 µM
SMILES: CC1=C/C(=C(\c2cc(C)c(O)c(C(=O)O)c2)c2c(Cl)ccc(S(=O)(=O)O)c2Cl)C=C(C(=O)O)C1=O

IC50 [1]: < 50 µM
SMILES: CC1OC2CC(=O)OC2C2=C1C(=O)c1c(O)cccc1C2=O (stereo not drawn)

IC50 [1]: 59.9 µM
SMILES: CC1=CC(=C(c2cc(C)c(O)c(C(=O)O)c2)c2cc(C)c(O)c(C(=O)O)c2)C=C(C(=O)O)C1=O

Ratio IC50 (Homo sapiens [3]): 12
Activity [4]: 35%
IC50 [5]: 10.7 µM
IC50 [6]: 6 µM
Activity [9]: inactive
IC50 [1]: 8 µM
inhibition [10]: Active
Ratio IC50 (Homo sapiens [11]): 62
inhibition [12]: Active
SMILES: O=[N+]([O-])c1ccc(O)c2ncccc12 [NITROXOLINE]

IC50 [1]: < 50 µM
SMILES: NC1=C(Br)C(=O)c2ncccc2C1=O
